Consider 4 molecules from PMC8188729 (Nature, 2020).

Values joined by “and” are separate entries in the source; they are usually repeats but may differ in a detail not shown here. Identical values can stand only once.

Data set [1] deals with HIV-1 recombinant strains resistant to NRTIs, NNRTIs, INSTIs, PIs or MIs. The data set is classed as cell-based.
Data set [2] can be described thus: Cytotoxicity assay. The data set is classed as cell-based. The conditions noted are these: human, Huh-7 cells.
The nature of data set [3]: Cytotoxicity assay. In kind it is cell-based. The conditions noted are these: human, monocyte-derived macrophages.
Data set [4] in a line: Cytotoxicity assay. The data set is classed as cell-based. The conditions noted are these: human, MT-4 cells.
Data set [5] can be described thus: Cytotoxicity assay. The data set is classed as cell-based. The conditions noted are these: human, Gal-PC-3 cells.
The nature of data set [6]: Cytotoxicity assay. The conditions noted are these: human, primary human hepatocytes. In kind it is cell-based.
The nature of data set [7]: Cytotoxicity assay. The conditions noted are these: human, primary CD4+ T-lymphocytes. In kind it is cell-based.
Data set [8] can be described thus: Cytotoxicity assay. The settings on record: human, stimulated PBMCs. The data set is classed as cell-based, human.
The nature of data set [9]: Cytotoxicity assay. In kind it is cell-based. The conditions noted are these: human, MRC-5 cells.
The nature of data set [10]: Cytotoxicity assay. The data set is classed as cell-based. The settings on record: human, Gal-HepG2 cells.
Data set [11] can be described thus: Cytotoxicity assay. The data set is classed as cell-based. The conditions noted are these: human, quiescent PBMCs.

For the molecule `C=C(C)[C@@H]1CC[C@]2(C(=O)O)CC[C@]3(C)[C@H](CC[C@@H]4[C@@]5(C)CC[C@H](OC(=O)CC(C)(C)C(=O)O)C(C)(C)[C@@H]5CC[C@]43C)[C@@H]12` [BVM, bevirimat, reference compound], in data set [1], the Fold resistance is >67.5 (6) and >67.5 (7).
`O=C1Nc2ccc(Cl)cc2[C@@](C#CC2CC2)(C(F)(F)F)O1` [EFV, efavirenz, reference compound]: the Fold resistance in data set [1] is on record as >22.5 (3).
Consider `COc1cc2c(cc1Cc1cccc(Cl)c1F)c(=O)c(C(=O)O)cn2[C@H](CO)C(C)C` [EVG, elvitegravir, reference compound], for which, in [1], the Fold resistance is >53.8 (3) and >52.9 (3).
As to `COc1ccc(C[C@H](N)C(=O)N[C@H]2[C@@H](O)[C@H](n3cnc4c(N(C)C)ncnc43)O[C@@H]2CO)cc1` [Puromycin, reference compound], the CC50 in the data set “Cytotoxicity assay [2]” is 500 nM; in “Cytotoxicity assay [3]”, 4500 ± 2800 nM; in “Cytotoxicity assay [4]”, 200 ± 100 nM; in “Cytotoxicity assay [5]”, 400 nM; in “Cytotoxicity assay [6]” it was 1600 ± 600 nM; in “Cytotoxicity assay [7]”, 200 ± 100 nM. Also, the CC50 is 200 ± 100 nM in “Cytotoxicity assay [8]”, 300 nM in the data set “Cytotoxicity assay [9]”, 1000 ± 1700 nM in “Cytotoxicity assay [10]” and 600 ± 1500 nM in the data set “Cytotoxicity assay [11]”.

As a reminder, the CC50 is the concentration giving 50% cytotoxicity.
